Data set [1] deals with hair growth (clipped patch of skin, upper back of male rats). Put plainly: Measurement of hair growth using the rat model (cumulative clipped hair weight, topical application). It counts as in vivo. The procedure: The effect of compounds on hair growth was assessed using male rats as an animal model as follows. In each of the comparisons reported below, 10 rats were used.
A small patch of normal skin (4cm ×4cm) on the upper back of each rat was clipped at the start of the experiment and a hair growth stimulant composition (or a control) applied twice daily topically to the clipped area. Hair was clipped from the area of the patch twice weekly, collected and weighed at each time point, and cumulative hair weight calculated. […] A positive response, ie. an increase of at least 10% by weight of hair, compared with a control, indicates the potential of the test substance to prevent hair loss and/or reverse baldness in human subjects.
In this example, the effect of topical application of D-glucaro-1,4-lactone, an inhibitor of β-glucuronidaseis shown. The test solution in this experiment contained approximately 7% (w/v) of the glucarolactone in the form of an equilibrium mixture prepared from boiled calcium glucarate. The vehicle was 33% (v/v) ethanol containing 50mM Na citrate at pH 4.2. Test or control solutions (0.3ml) were applied twice-daily to the clipped site; the hair growth results are shown below in Table 2.
This effect is illustrated in Table 3 below, in which the vehicle was 33% v/v ethanol in 50mM sodium citrate, pH4.2:
In a further experiment, glucarolactone was tested in the presence of an activity enhancer, 1-methylpyrrolidone. Again, a significant increase in hair weight was obtained, as shown below in Table 4, in which the vehicle was 33% v/v aqueous ethanol containing 50mM Na citrate buffer pH4.2 and 10% w/v 1-methylpyrrolidone. […]

Data set [2] addresses T1, β-glucuronidase (Homo sapiens, UniProt P08236).
T1 sequence (P08236 23-651): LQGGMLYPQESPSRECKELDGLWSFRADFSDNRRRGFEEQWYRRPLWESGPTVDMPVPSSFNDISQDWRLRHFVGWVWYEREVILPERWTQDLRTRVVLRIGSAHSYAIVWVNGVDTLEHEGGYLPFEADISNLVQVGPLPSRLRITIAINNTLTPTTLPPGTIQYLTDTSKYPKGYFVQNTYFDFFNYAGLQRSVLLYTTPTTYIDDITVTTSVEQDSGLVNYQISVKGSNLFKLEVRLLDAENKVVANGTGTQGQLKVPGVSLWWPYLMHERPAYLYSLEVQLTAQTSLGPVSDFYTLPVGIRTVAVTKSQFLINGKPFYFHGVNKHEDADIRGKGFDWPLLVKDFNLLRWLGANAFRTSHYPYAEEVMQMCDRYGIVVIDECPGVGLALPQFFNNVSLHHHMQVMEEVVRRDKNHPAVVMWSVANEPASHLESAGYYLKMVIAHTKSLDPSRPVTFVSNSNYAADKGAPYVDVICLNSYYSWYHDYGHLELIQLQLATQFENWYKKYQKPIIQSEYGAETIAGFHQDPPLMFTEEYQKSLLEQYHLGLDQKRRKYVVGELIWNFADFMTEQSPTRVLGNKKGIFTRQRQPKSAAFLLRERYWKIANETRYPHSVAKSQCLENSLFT
Put plainly: Inhibition of β-glucuronidase activity (nitrophenyl glucuronide substrate, method of Dingle). Conditions: for inhibition of γ-glucuronidase activity (so in the source), in words: statement referring to experiments described later. It counts as biochemical. The procedure:
In each of the assays referred to herein, the chemical inhibitor was tested at a pH close to the optimum pH value of the relevant enzyme, and under conditions of saturating substrate concentration, to ensure that Vmax was obtained in the controls. […] The activity of each of these four exoglycosidases was measured using a method described in "Lysosomes, A Laboratory Handbook", edited by […]., Second Edition, (1977) at page 118. […] [Ibid., page 118] as described herein. […] [Ibid., page 118]. The results when the acid or the lactone were incubated with a mixture of this enzyme and the nitrophenyl glucuronide substrate were as follow: […]

The conditions of data set [3]: cited from earlier work.
Data set [4] concerns hair growth (skin of shaved rabbits). Conditions: repeated injection into skin of shaved rabbits; cited from earlier work.
In data set [5] the target is T1, β-glucuronidase. The note with it: Levvy and Snaith (1972); cited from earlier work.
In the next data set the test system is α-glucuronidase. Conditions: Levvy and Snaith (1972); cited from earlier work.
The next data set has as its system hair growth. The note with it: 1% solution, daily application for six months; cited from earlier work.
Where [6] appears, read: Table 3, 7% glucarolactone, 0.2% minoxidil, or both, 45 days.
The mark [7] stands for this setting: Table 3, 7% glucarolactone, 0.2% minoxidil, or both, vehicle 33% v/v ethanol in 50mM sodium citrate, pH4.2, vehicle control 427.2 ± 58.7.
Setting [8] is: read-out: percentage inhibition of a 1mM concentration, 1 mM, worked out from 1.03 or 1.14 mM.

Data on eight compounds can be found in patent US5015470A, “Cosmetic composition” (priority 1986, dated 1991).

Read-outs that look alike come from different tables or passages of the source.

With `O=C(O)[C@@H](O)[C@H]1OC(=O)[C@H](O)[C@H]1O` [glucarolactone, D-glucaro-1,4-lactone], the “stimulation of hair growth (increase)” value in data set [1] (7% glucarolactone vs vehicle, Table 2) came to 13%. Further, the “increase in hair growth” value worked out at 39% in data set [1] (7% glucarolactone with 0.1% w/v Triton X-100, 43 days (Table 5)) and 15% in data set [1] (7% glucarolactone with 10% w/v 1-methylpyrrolidone, 46 days (Table 4)). The “Mean Cumulative hair weight (mg) ± sd, after 45 days” value stood at 482.7 ± 58.4 mg in data set [1] (Table 2, approx. 7% (w/v), 0.3 ml twice daily, vehicle 33% (v/v) ethanol, 50mM Na citrate pH 4.2, vehicle control 427.2 ± 58.7) and 482.7 ± 58.4 mg in data set [1] (setting [7]). Further, in data set [1] (setting [6]), the “Increase in hair growth (%) (Test vs control)” value is 13%. Besides, in data set [1] (Table 4, 7%, vehicle 33% v/v aqueous ethanol, 50mM Na citrate pH4.2, 10% w/v 1-methylpyrrolidone, vehicle control 611.1 ± 48.1), the “Mean Cumulative Hair Weight (mg) ± sd, after 46 days” value came out at 706.2 ± 86.6 mg. The “Mean Cumulative Hair Weight (mg) ± sd, after 43 days” value in data set [1] (Table 5, 7%, vehicle 20% v/v ethanol, 50mM sodium citrate pH4.2, 0.1% w/v Triton X-100, vehicle control 412.3 ± 57.5) was 573.3 ± 82.5 mg. In data set [1] (result in words), the “effect on hair growth in combination with a low concentration of minoxidil” value is on record as “synergistic effect on hair growth in combination with a low concentration of minoxidil”. Besides, the “effect on onset of anagen / hair cycle” value in data set [1] (result in words) is “consistently found to advance the onset of anagen, thus reducing the amount of time spent in the resting stage of hair cycle”.
Consider `Nc1cc(N2CCCCC2)nc(N)[n+]1[O-]` [minoxidil, reference compound], for which, in data set [1] (2% (w/v) minoxidil vs vehicle, 45 days), the “increase in hair growth” value is 55%. For the same compound, the “Mean Cumulative hair weight (mg) ± sd, after 45 days” value is on record as 599.2 ± 85.1 mg in data set [1] (Table 1, 2% (w/v) topical twice daily, vehicle 70% ethanol, 20% water, 10% propylene glycol, vehicle control 387.3 ± 75.9) and 465.8 ± 48.8 mg in data set [1] (setting [7]). In addition, in data set [1] (setting [6]), the “Increase in hair growth (%) (Test vs control)” value is recorded as 9%. This compound registered an inhibition at 50 µg/mL on β-glucuronidase [2] (0.05 mg/ml (0.24 mM)) of 2%. The compound also gave an inhibition at 400 µg/mL on β-glucuronidase [2] (0.4 mg/ml (1.9 mM)) of 12%. Further, the inhibition at 800 µg/mL against β-glucuronidase [2] (0.8 mg/ml (3.8 mM)) came to 23%. Moreover, the “enzyme inhibition in words (weak inhibitor)” value (“enzyme inhibition in words” below) at β-glucuronidase [2] (1 mM, β-glucuronidase) is on record as “weak enzyme inhibitor”. The inhibition at 1000 µM at β-glucuronidase [2] (1 mM, β-glucuronidase, read-out: enzyme inhibition in words (weak inhibitor)) was 5 to 50%; at β-glucuronidase [2] (read-out: percent inhibition of a 1mM concentration), 6%. Besides, the “side effects of orally administered minoxidil” value in data set [3] (oral) was “fluid retention, tachycardia, dyspnea, gynecomastia, fatigue, nausea and cardiotoxicity”. In data set [3] (topical), the “side effects following topical application” value was “certain side effects have been experienced following topical application of minoxidil”.
In the case of heparan sulphate, the “initiation of the hair growth cycle with stimulation of hair growth, in words” value (“initiation of the hair growth cycle” below) in data set [4] is “particularly active”.
As to dermatan sulphate, in data set [4], the “initiation of the hair growth cycle” value is recorded as “also active in this respect, but to a lesser extent”.
Consider zinc gluconate, for which the “increase in hair growth” value in data set [1] (2% (w/v) zinc gluconate, 45 days (Table 6)) is listed as 16%. For the same compound, the “Mean Cumulative hair weight (mg) ± sd, after 45 days” value in data set [1] (Table 6, 2% (w/v), vehicle 20% aqueous ethanol, vehicle control 397.8 ± 56.3) is reported as 460.9 ± 45.7 mg.
For `O=C[C@H](O)[C@H]1OC(=O)[C@@H](O)[C@H]1O` [glucurono-6,3-lactone, D-Glucurono-6,3-lactone], the inhibition at 200 µg/mL against β-glucuronidase [2] (0.2 mg/ml (1.14 mM)) was 51%. In addition, the “enzyme inhibition in words” value at β-glucuronidase [2] (1 mM, β-glucuronidase) was “weak enzyme inhibitors”. Further, the inhibition at 1000 µM at β-glucuronidase [2] (setting [8]) is 44.7%. For the same compound, on β-glucuronidase [2], the “inhibition of γ-glucuronidase activity (so in the source), in words” value is “weak inhibitors”.
The compound `O=C[C@H](O)[C@@H](O)[C@H](O)[C@H](O)C(=O)O` [glucuronic acid, D-glucuronic acid] had an inhibition at 200 µg/mL against β-glucuronidase [2] (0.2 mg/ml (1.03 mM)) of 20%. The “enzyme inhibition in words” value at β-glucuronidase [2] (1 mM, β-glucuronidase) was “weak enzyme inhibitors”. The inhibition at 1000 µM on β-glucuronidase [2] (setting [8]) came to 19.4%. Besides, the “inhibition of γ-glucuronidase activity (so in the source), in words” value against β-glucuronidase [2] is “weak inhibitors”. Further, the “inhibition of β-glucuronidase, in words” value at β-glucuronidase [5] is given as “feebly inhibited”. Moreover, the “inhibition of α-glucuronidase, in words” value in the data set on α-glucuronidase is recorded as “feebly inhibited”. Besides, the “regrowth of hair, in words” value in the data set with hair growth is reported as “regrowth of hair”.
Consider chondroitin-6-sulphate, for which the “initiation of the hair growth cycle” value in data set [4] is reported as “also active in this respect, but to a lesser extent”.
